Measured values reported in US6461624B2, “Skin-protective composition” (priority 1997, dated 2002).

Columns and labels:
Experiment in all cases: Cell survival / percentage killing of a culture exposed to an agent (viable counts)
MRSA strain S13 = type: cell-based, Methicillin Resistant Staphylococcus aureus; conditions: for Percentage of cells killed after 5 minutes exposure, MRSA (S13): 0.5% lauric acid Na salt and/or 0.25% Parabens Na salt, sodium salt
Method: (§1) Determination of the Cell Counts
(§2) This was achieved by a number of different techniques depending on the circumstances involved. The techniques used were:
(§3) 1. Standard spread plate technique
(§4) This involves spreading a 100 μl aliquot of the desired dilution onto well dried agar plates using an alcohol flamed hockey stick.
(§5) In this method 1 ml samples of the diluted culture are placed into a sterile petri dish and then sterile cooled agar is added. The plate is then gently swirled to facilitate a […] mixing of the sample and the agar and allowed to solidify before being incubated at the temperature of choice in an inverted manner.
(§6) 3. Spot/drop plating method
(§7) This method involves the placing of a sample or the diluted sample onto a pre-dried agar plate but the sample is allowed to dry into the plate. Usually an aliquot of 5-20 μl is chosen to be thus plated. This method offers the advantages of being both economical in terms of agar plates (several drops can be readily accommodated on one agar plate) and also accurate.
(§8) All plates were incubated for 16 hours before being counted.
(§9) All dilutions were carried out in ¼×Ringers solution and all bacteria were grown up in Tryptic Soy Broth (TSB)
(§10) Determination of the cell survival/percentage killing of a culture with respect to exposure to a given agent.
(§11) In this method a sample of a fresh overnight culture was titred and a sample (usually 5 mls) was added to either broth (100mls) containing the test reagents or sterile water (100 mls) and test agents.
(§12) Immediately a sample (T0) was taken and plated using one of the techniques listed above. At regular intervals thereafter other samples were also removed, diluted and plated.
(§13) Error is 1 standard deviation of the mean.

[1] = system: Vancomycin-resistant Enterococci; type: cell-based, Enterococcus; conditions: for killing effect / mode of action on Vancomycin-resistant Enterococci (in words): methyl/propyl paraben Na salt 0.25% (w/v) (1:1) and/or lauric acid Na salt 0.50% (w/v), sodium salt
Method: as §1, §2, §3, §4, §5, §6, §7, §8, §9, §10, §11, §12, §13

[2] = system: Ps. aeruginosa (lab isolate); type: cell-based, Pseudomonas aeruginosa; conditions: for Percentage of cells killed after 5 minutes exposure, Ps. aeruginosa: 0.5% lauric acid Na salt and/or 0.25% Parabens Na salt, sodium salt
Method: as §1, §2, §3, §4, §5, §6, §7, §8, §9, §10, §11, §12, §13

E. coli (lab isolate) = type: cell-based, Escherichia coli; conditions: 0.5% lauric acid Na salt and/or 0.25% Parabens Na salt
Method: as §1, §2, §3, §4, §5, §6, §7, §8, §9
Determination of the cell survival/percentage killing of a culture with respect to exposure to a given agent. […]

[3] = methyl/propyl paraben Na salt 0.25% (w/v) (1:1) and/or lauric acid Na salt 0.50% (w/v)

Structure (SMILES): CCCCCCCCCCCC(=O)[O-].[Na+] [lauric acid Na salt, lauric acid sodium salt]
- reduction of a population of MRSA (MRSA strain S13; 0.50% lauric acid Na salt, isolate S13 in water held at 37° C., over 2 hrs): 99.8%
- killing of MRSA (MRSA strain S13; 0.50% lauric acid Na salt, repeated experiment, after 30 mins): 99.6%
- killing of MRSA (MRSA strain S13; 1.75% lauric acid Na salt, isolate S13, over 2 hrs): < 99.0%
- Percentage of cells killed after 5 minutes exposure, MRSA (S13) (MRSA strain S13; listed as lauric acid): more than 97
- Percentage of cells killed after 5 minutes exposure, MRSA (S13) (MRSA strain S13): >97
- killing effect / mode of action on MRSA isolate S13 (in words) (MRSA strain S13; [3]): does elicit killing effect
- Percentage of cells killed after 5 minutes exposure, Vancomycin Resistant Enterococcus ([1]; 5 minutes, 0.5% lauric acid Na salt and/or 0.25% Parabens Na salt): 100
- kill rate ([1]; after 5 mins): 100%
- survivors present when samples were plated ([1]; after 5 mins, T0 count 4.63×10^7 cfu/ml): no survivors
- killing effect / mode of action on Vancomycin-resistant Enterococci (in words) ([1]; listed as Lauric acid Na salt): bactericidal
- killing effect / mode of action on Vancomycin-resistant Enterococci (in words) ([1]; listed as lauric acid): totally destroyed
- survivors present when samples were plated ([1]; strain FPL050, after 5 mins): no survivors
- Percentage of cells killed after 5 minutes exposure, Ps. aeruginosa ([2]; listed as lauric acid): 13
- Percentage of cells killed after 5 minutes exposure, Ps. aeruginosa [2]: >13
- killing effect / mode of action on Ps. aeruginosa (in words) [2, 3]: not effective
- Percentage of cells killed after 5 minutes exposure, E. coli (E. coli (lab isolate)): >90
